{"source": "ChEMBL document CHEMBL4680246", "about": "“Design, synthesis and biological evaluation of novel O-carbamoyl ferulamide derivatives as multi-target-directed ligands for the treatment of Alzheimer's disease” (Eur J Med Chem, 2020)", "key": {"[1]": {"biological_target": "T1, Amine oxidase [flavin-containing] A (Homo sapiens, UniProt P21397)", "T1 sequence (P21397 whole entry)": "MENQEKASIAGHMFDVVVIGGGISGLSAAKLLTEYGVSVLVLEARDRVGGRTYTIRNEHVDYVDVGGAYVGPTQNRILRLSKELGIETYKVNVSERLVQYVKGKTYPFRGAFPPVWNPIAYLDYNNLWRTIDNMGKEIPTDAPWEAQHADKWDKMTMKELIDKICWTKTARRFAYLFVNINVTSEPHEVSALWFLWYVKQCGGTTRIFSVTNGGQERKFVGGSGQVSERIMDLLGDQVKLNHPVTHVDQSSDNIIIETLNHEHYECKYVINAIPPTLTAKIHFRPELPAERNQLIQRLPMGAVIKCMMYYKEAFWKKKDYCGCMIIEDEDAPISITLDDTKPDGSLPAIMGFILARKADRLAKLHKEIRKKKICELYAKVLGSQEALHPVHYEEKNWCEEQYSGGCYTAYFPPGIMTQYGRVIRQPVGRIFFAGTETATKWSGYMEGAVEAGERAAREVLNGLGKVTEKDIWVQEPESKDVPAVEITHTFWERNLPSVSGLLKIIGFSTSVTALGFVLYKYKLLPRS", "experiment": "Inhibition of recombinant human MAO-A"}, "[2]": {"experiment": "Toxicity in Zebrafish assessed as mortality at 50 ug/ml relative to control", "design": "species or system Danio rerio", "settings": "in vivo, at 50 µg/mL"}, "[3]": {"system": "HT-22", "experiment": "Down regulation of tau protein expression in mouse HT22 cells transfected with pRK5-GFP-Tau plasmid at 2.5 to 20 uM by Western blot analysis", "assay_type": "functional, cell-based", "settings": "dose 2.5-20 µM"}, "[4]": {"experiment": "Effect on tau protein level in mouse HT22 cells transfected with pRK5-GFP-Tau P301L plasmid assessed as fluorescence intensity at 5 uM by fluorescence microscopy (reference value: 33.6)", "assay_type": "functional, HT-22"}, "[5]": {"experiment": "Acute toxicity in Kunming mouse assessed as hypokinesia at 250 to 1000 mg/kg", "assay_type": "organism-based", "settings": "in vivo, dose 250-1000 mg/kg"}}, "note": "pIC50: −log10 of the molar value. Activity calls are given as the source filed them. The calls are words filed in the database; no cut-off is given here.", "data": [{"compound": "CCN(C)C(=O)Oc1ccc(/C=C/C(=O)N2CCc3ccccc3C2)cc1OC", "values": [{"measurement": "pIC50", "setting": "[1]", "value": 4.80}, {"measurement": "mortality at 50 ug/ml", "setting": "[2]", "value": 100, "unit": "%"}, {"measurement": "Activity", "setting": "[3]", "value": "Active"}, {"measurement": "Flu intensity", "setting": "[4]", "value": 23.9}, {"measurement": "Activity", "setting": "[5]", "value": "Toxic"}]}]}
